Data as given in patent KR20100138114A, “안정성이 향상된 무정형 아데포비어 디피복실 고체분산체 및 이의 제조방법” (대원제약주식회사, priority 2009, dated 2010).

Key:
[1] = Crystal form conversion test of crystalline adefovir dipivoxil (Experimental Example 1, X-ray diffraction); assay type: physicochemical; conditions: overall conclusion: 40 °C, relative humidity 75%, 3 days, then drying at 60 °C
[2] = pH 2.0; cited from earlier work

Compound	crystal form conversion depending on storage conditions [1]	solubility class (BCS) [2]
CC(C)(C)C(=O)OCOP(=O)(COCCn1cnc2c(N)ncnc21)OCOC(=O)C(C)(C)C [신규결정형]	결정형이 전환	
CC(C)(C)C(=O)OCOP(=O)(COCCn1cnc2c(N)ncnc21)OCOC(=O)C(C)(C)C [아데포비어 디피복실, 9-[2-[[{bis(pivaloyloxy)-methoxy}phosphinyl]methoxy]ethyl]adenine]		높은 용해도(High solubility)
